In US8815946B2, “Inhibition of proliferation and fibrotic response of activated corneal stromal cells” (University of Pittsburgh—of the Commonwealth System of …, priority 2008, dated 2014):

Experiments:
[1] = system: cellular fibronectin; assay: Western blot analyses of cellular fibronectin, human corneal stromal cells; assay type: cell-based; conditions: TGF-β1, two and four days
Procedure: FIG. 7. Western blot analyses of cellular fibronectin. Human corneal stromal cells in P2 growing in DMEM/F12 with 10% FBS were subcultured into 60 mm tissue culture dishes. After 24 hrs of incubation, the media were replaced with DMEM/F12 medium containing 1% FBS and TGF-β1 with or without (control) different EP concentrations as indicated and incubated for two and four days (media were changed every 24 hours). The cells were extracted in RIPA buffer and the extracts containing 5 μg of total proteins were loaded per lane for Western blot analysis.
Keratocytes or fibroblasts grown under different culture conditions were extracted in RIPA buffer (9.1 mM dibasic sodium phosphate, 1.7 mM monobasic sodium phosphate, 150 mM NaCl, pH, 7.4, 1% Nonidet P-40, 0.5% sodium deoxycholate, 0.1% SDS, 0.03 TIU/mL aprotinin, 1 mM sodium orthovanadate, and 100 μg/mL phenylmethylsulfonyl fluoride (PMSF)). Aliquots of cell extracts containing 50 or 100 μg protein were subjected to SDS-PAGE. […] Immunoreactive bands were detected using chemiluminescence Western chemiluminescence reagents. […]

[2] = system: extracellular matrix genes; assay: Microarray analysis (Affymetrix U133 Plus 2.0) of corneal stromal cells; assay type: cell-based, human
Procedure: Total RNA was processed and analyzed using the appropriate Affymetrix products (Affymetrix Inc., Santa Clara, Calif.). Eukaryote Poly A RNA internal standards (GeneChip® Poly-A RNA Control Kit from Affymetrix Inc.) were added to the samples, and the mRNA component of the total RNA was reverse-transcribed in the presence of a T7-(dT)24 primer (GeneChip® One-Cycle cDNA Synthesis Kit from Affymetrix Inc.). The resulting cDNA was extracted (GeneChip® Sample Cleanup Module from Affymetrix Inc.) and transcribed in vitro in the presence of biotin-labeled ribonucleotides (Labeling Kit from Affymetrix Inc.). The biotinylated RNA was extracted and fragmented (GeneChip® Sample Cleanup Module from Affymetrix Inc.: 20 μg material fragmented for 35 minutes at 94° C.). Each sample was hybridized overnight to a U133 PLUS™ 2.0 GeneChip (GeneChip® Human Genome U133 Plus 2.0 Array from Affymetrix Inc.). The chips were then washed, developed and scanned in Agilent CHIPSCANNER™ (Affymetrix Inc., Santa Clara, Calif.). Raw data was processed and analyzed using Affymetrix GENECHIP™ Operating System (GCOS) v 1.0.
The U133 PLUS™ 2.0 GeneChips contain 54,675 panels, each targeting a specific transcript sequence. Approximately 20,600 gene products identified by Entrez Gene numbers are redundantly targeted by 46,000 panels: the remaining panels target products which are less well characterized. Affymetrix GCOS™1.0 software was used to assess the presence or absence of the target sequence of each panel. Expression levels were normalized so that the mean for each sample was equal to the global mean for all samples. Panels, which were absent for every sample in either experiment, were omitted from further consideration. This left 23284 panels encoding 12258 unique, characterized (Entrez Gene) genes.
In earlier work, the changes in the gene expression upon activation of keratocyte to myofibroblast phenotype induced by TGF-β1 was studied. In the present analysis, as a cross check the present, consistent TGFβ-evoked (>2-fold) increases were checked with the previous data. Transition from keratocytes to fibroblasts increased 520 panels, and decreased 700 panels. The 599 unique, characterized genes so altered were compared with a previously acquired database of 873 genes known to be altered by phenotypic transition either from keratocyte to fibroblast or from fibroblast to myofibroblast. The number of genes concordant between these sets was 170, 4.9-fold greater than random chance (p=1.65×10^−130, chi-squared test). Extracellular matrix components: 244 panels (143 unique genes) with the Gene Ontology Cellular Component code 5578 (extracellular matrix) were selected. Of these, 28 were TGFβ-1 modulated in the present experiment and 49 were Consistent 5-fold increases in myofibroblasts.
In Table 1 are ECM genes altered by phenotype change, which are also affected by ethyl pyruvate. Genes in bold were altered during phenotype shifts only in previous experiments, genes in italics were altered by phenotype shift only in the present experiment, and genes in normal font were altered by phenotype shifts in both present and prior experiments.

[3] = three consistent (2-fold) changes of four potential
[4] = two consistent (2-fold) changes of four potential

With `CCOC(=O)C(C)=O` [ethyl pyruvate] the “downregulation of fibronectin by Western blot of cell extracts (including the matrix)” value [1] was “confirmed”, the “latent transforming growth factor beta binding protein 1 expression change” value ([2]; four consistent (2-fold) changes of four potential) was “(−4.1)” and the “consistent increase of RGC32, HMOX1, GDF15 and TRIB3 expression” value ([2]; myofibroblasts, only four characterized genes) was 5 fold. The “Tissue factor pathway inhibitor 2 expression change” value [2, 3] was “(−4.8)”, the “collagen, type III, alpha 1 expression change” value [2, 3] was “alpha 1 (−4.9)” and the “collagen, type X, alpha1 expression change” value [2, 3] was “alpha1 (−8.1)”. The “laminin, beta 1 expression change” value [2, 3] was “(−3.8)”, the “matrix metallopeptidase 10 (stromelysin 2) expression change” value [2, 3] was “(stromelysin 2) (3.8)” and the “periostin, osteoblast specific factor expression change” value [2, 3] was “specific factor (−9.7)”. The “secreted phosphoprotein 1 (osteopontin) expression change” value [2, 3] was “(osteopontin) (2.7)”, the “Collagen, type VIII, alpha 1 expression change” value [2, 4] was “alpha 1 (−4.0)” and the “EGF-containing fibulin-like extracellular matrix protein1 expression change” value [2, 4] was “(−2.6)”. For the same compound, the “SPARC-like 1 expression change” value [2, 4] was “SPARC-like 1 (−3.3)”, the “chondroitin sulfate proteoglycan 2 (versican) expression change” value [2, 4] was “(versican) (−5.9)” and the “collagen triple helix repeat containing 1 expression change” value [2, 4] was “containing 1 (−4.3)”. The “collagen, type I, alpha 2 expression change” value [2, 4] was “alpha 2 (−2.7)”, the “collagen, type V, alpha 1 expression change” value [2, 4] was “alpha 1 (−6.2)” and the “collagen, type VIII, alpha 2 expression change” value [2, 4] was “alpha 2 (−3.8)”. For the same compound, the “collagen, type XII, alpha1 expression change” value [2, 4] was “alpha1 (−2.8)”, the “fibronectin 1 expression change” value [2, 4] was “fibronectin 1 (−2.3)” and the “heparan sulfate proteoglycan 2 (perlecan) expression change” value [2, 4] was “(perlecan) (−3.0)”. The “laminin, alpha 4 expression change” value [2, 4] was “(−2.4)”, the “lysyl oxidase expression change” value [2, 4] was “lysyl oxidase (−4.0)” and the “matrix metallopeptidase 1 (interstitial collagenase) expression change” value [2, 4] was “collagenase) (5.9)”. For the same compound, the “secreted protein, acidic, cysteine-rich (osteonectin) expression change” value [2, 4] was “(osteonectin) (−8.4)”, the “tenascin C (hexabrachion) expression change” value [2, 4] was “(hexabrachion) (−7.4)” and the “collagen, type I, alpha 1 expression change” value ([2]; two consistent (2-fold) ethyl pyruvate changes of four potential (2 phenotypes, 2 experiments)) was “alpha 1 (−2.9)”.
